# Patent publication US7407973B2, “Use of pirfenidone in therapeutic regimens” (Intermune, Inc., priority 2003, dated 2008)
# How the values were obtained:
# CDK2/cyclinE = CDK2/cyclinE (Homo sapiens, UniProt P24941); test: Enzymatic activity of human kinase in presence of pirfenidone; type: biochemical; settings: percent of control activity in absence of pirfenidone, concentration not given
# Method: (§1) Enzymatic activity of various human kinases was assayed in the presence and the absence of pirfenidone. Percent enzyme activity of various human enzymes in the presence of substrate and pirfenidone are shown in FIGS. 1-5, and in Table 2, below, where “percent enzyme activity” is the percent of the control activity (e.g., in the absence of pirfenidone): […]
# other kinases tested = test: Human kinase panel, overall conclusion: other kinases; type: biochemical
# Method: as §1
smiles,measurement,setting,value
"Cc1ccc(=O)n(-c2ccccc2)c1 [pirfenidone, 5-methyl-1-phenyl-2-(1H)-pyridone]",% Activity,CDK2/cyclinE,89%
same,Inhibition of other kinases tested (conclusion from Table 2 data),other kinases tested,does not substantially inhibit
